Source: PMC12440824, “Chimeric deubiquitinase engineering reveals structural basis for specific inhibition of the mitophagy regulator USP30” (Nature Structural & Molecular Biology, 2025)
Read-outs that look alike come from different tables or passages of the source.

Experiments:
[1] = system: HeLa cells expressing YFP–parkin; ubiquitination of USP30 substrates (TOM20, TOM40, MFN2); experiment: Mitochondrial ubiquitination analysis (OtUBD enrichment, western blot); assay type: cell-based, human; details: 2 µM compound 19 h, then 10 µM CCCP 1 h
Protocol: Using a Trans-Blot Turbo system (Bio-Rad, 1.0 A, 25 V, 30 min), proteins were blotted onto a nitrocellulose membrane. Membranes were saturated by incubating in 5% (wt/vol) non-fat milk in PBS-T. Primary antibodies (anti-Flag, 1:1,000, Sigma, F3165; anti-USP30, 1:500, Sigma, HPA016952; anti-vinculin, 1:10,000, Sigma, V9131; anti-GAPDH, 1:10,000, Thermo Fisher, AM4300; anti-TOM40, 1:2,000, Proteintech, 18409-1-AP; anti-TOM20, 1:5,000, Proteintech, 11802-1-AP; anti-MFN2, 1:5,000, Proteintech, 12186-1-AP) were allowed to bind overnight. Appropriate horseradish peroxidase-coupled secondary antibodies (anti-mouse, 1:5,000, Sigma, NXA931; anti-rabbit, 1:5,000, Sigma, GENA934) were applied, and chemiluminescence was generated using Clarity Western ECL Substrate (Bio-Rad). For detection of endogenous USP30 levels, the Clarity Western ECL Substrate was supplemented with 10% Clarity Max Western ECL Substrate (Bio-Rad). Images were recorded on a ChemiDoc MP Imaging System (Bio-Rad).
HeLa cells constitutively expressing YFP–parkin were treated with 2 µM of the respective compounds or an equivalent volume of DMSO on the day after seeding. Nineteen hours after compound treatment, 10 µM carbonyl cyanide m-chlorophenyl hydrazone (CCCP, Acros Organics) or DMSO of the equivalent volume was added for 1 h before cells were washed with ice-cold PBS. Cells were then lysed in urea lysis buffer (4 M urea, 50 mM Tris-HCl, pH 8, 150 mM NaCl, 1% (vol/vol) IGEPAL, 2 mM EDTA, 5% (vol/vol) glycerol, 1× EDTA-free protease inhibitor cocktail, 1 mM PMSF, 10 µM PR619, 20 mM N-ethylmaleimide, 4 mM 1,10-phenanthroline) and collected by scraping. Cells were homogenized by sonication for 10 s (2 s on and 2 s off) at 10% amplitude and centrifuged for 10 min at 14,000g and 4 °C.
Biotinylated OtUBD (2 nmol, prepared as described elsewhere[53]) was immobilized on 35 µl of a high-capacity NeutrAvidin agarose bead slurry (Pierce, Thermo Fisher Scientific) per condition for 1 h at 4 °C with rotation. Excess reagent was washed away with ice-cold PBS. The beads were then equilibrated in urea lysis buffer. For each condition, an equal amount of 3 mg protein (as determined by the Bradford assay, in 1 ml of lysis buffer, typically obtained from one 10-cm dish) was added to the beads. These were then incubated for 2 h at 4 °C with rotation and pelleted by centrifugation at 500g for 1 min, and the supernatant was removed. Beads were then washed once with lysis buffer, once with high-salt buffer (50 mM Tris-HCl, pH 8, 1 M NaCl) and twice with PBS. Elution was carried out using 2× LDS sample buffer with 25 mM DTT and boiling for 5 min at 95 °C. After pelleting the beads at 500g for 1 min, the supernatant was transferred and analyzed by SDS–PAGE and western blotting as described above.

[2] = molecular target: USP30^ch3 A162S (Homo sapiens, UniProt Q70CQ3, A162S, form not given); experiment: Ub–RhoG cleavage enzyme inhibition assay, chimera 3 A162S; assay type: biochemical; details: mean n=3
Sequence of USP30^ch3 A162S (Q70CQ3 64-502 A162S, form open): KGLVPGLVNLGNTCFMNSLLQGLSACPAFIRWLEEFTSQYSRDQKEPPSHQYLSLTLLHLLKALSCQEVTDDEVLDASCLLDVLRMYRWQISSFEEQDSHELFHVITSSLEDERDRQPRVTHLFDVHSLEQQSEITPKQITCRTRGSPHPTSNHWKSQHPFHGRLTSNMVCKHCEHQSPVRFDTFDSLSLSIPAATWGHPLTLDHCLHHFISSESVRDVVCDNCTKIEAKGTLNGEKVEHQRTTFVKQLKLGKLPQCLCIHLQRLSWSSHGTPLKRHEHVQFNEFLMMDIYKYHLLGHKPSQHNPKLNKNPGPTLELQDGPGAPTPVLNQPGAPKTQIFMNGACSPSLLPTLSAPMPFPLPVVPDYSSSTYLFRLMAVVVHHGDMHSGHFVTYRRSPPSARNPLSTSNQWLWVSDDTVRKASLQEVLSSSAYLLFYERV
Sequence of USP30^ch3 A162S (P54578 248-318 partner, form open): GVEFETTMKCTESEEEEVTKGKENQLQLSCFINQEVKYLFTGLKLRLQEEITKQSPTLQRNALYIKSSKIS
Sequence of USP30^ch3 A162S (Q9P2H5 821-846 partner, form open): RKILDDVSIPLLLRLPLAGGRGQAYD
Protocol: (§1) Enzyme kinetics were performed in black, low-volume, non-binding-surface 384-well plates. […] Next, 10 µl of 2× enzyme solution was added in triplicate to the plate. The reaction was started by adding 10 µl of 2× substrate solution. […] Inhibitor solution (4×) was added to 4× enzyme solution to create a 2× enzyme–inhibitor mixture. Next, 10 µl of this 2× enzyme–inhibitor mixture was then added to the plate in triplicate, and the plate was incubated at room temperature for 90 min. The reaction was started by adding 10 µl of 2× Ub–RhoG substrate. […] Data were analyzed with GraphPad Prism.

[3] = system: USP30; details: read-out: Cellular ABPP IC50 / cellular target engagement, cited from earlier work
[4] = molecular target: USP30^ch3 I154A (Homo sapiens, UniProt Q70CQ3, I154A, form not given); experiment: Ub–RhoG cleavage enzyme inhibition assay, chimera 3 I154A; assay type: biochemical; details: mean n=3
Sequence of USP30^ch3 I154A (Q70CQ3 64-502 I154A, form open): as the sequence (Q70CQ3 64-502 A162S, form open) above, with I91A, S99A counted along it
Sequence of USP30^ch3 I154A (P54578 248-318 partner, form open): as the sequence (P54578 248-318 partner, form open) above
Protocol: as §1

[5] = system: USP30; set-up: method as in PMID 37385347; details: ‘pseudo-covalent’ binding mode proposed; cited from earlier work
[6] = system: other DUBs; details: at 100 µM; cited from earlier work
[7] = molecular target: USP30^ch2 (Homo sapiens, UniProt Q70CQ3); experiment: Ub–RhoG cleavage enzyme inhibition assay, chimera 2; assay type: biochemical; set-up: scale not given here; details: mean n=3
Sequence of USP30^ch2 (Q70CQ3 64-502): as the sequence (Q70CQ3 64-502 A162S, form open) above, with S99A counted along it
Sequence of USP30^ch2 (P54578 248-318 partner): as the sequence (P54578 248-318 partner, form open) above
Protocol: as §1

CC(C)(CO)NS(=O)(=O)c1ccc(NC(=O)[C@H](Cc2ccccc2)NC(=O)c2ccc(F)cc2)cc1 [NK036]
polyubiquitination of TOM20 and TOM40 [1]: elevated | polyubiquitination of mitofusin 2 (MFN2) [1]: not affecting

CC(C)(C)NS(=O)(=O)c1ccc(NC(=O)[C@H](Cc2ccccc2)NC(=O)c2ccc(F)cc2)cc1 [compound 39]
USP30ch3 A162S activity ([2]; inhibitor 0.001563 nM): 0.9737 | USP30ch3 A162S activity ([2]; inhibitor 0.00625 nM): 1.01 | USP30ch3 A162S activity ([2]; inhibitor 0.025 nM): 0.9776 | USP30ch3 A162S activity ([2]; inhibitor 0.1 nM): 0.9451 | USP30ch3 A162S activity ([2]; inhibitor 0.39 nM): 0.896 | USP30ch3 A162S activity ([2]; inhibitor 1.56 nM): 0.93 | USP30ch3 A162S activity ([2]; inhibitor 6.25 nM): 0.7972 | USP30ch3 A162S activity ([2]; inhibitor 25 nM): 0.6308 | USP30ch3 A162S activity ([2]; inhibitor 100 nM): 0.4027 | USP30ch3 A162S activity ([2]; inhibitor 400 nM): 0.2411 | USP30ch3 A162S activity ([2]; inhibitor 1600 nM): 0.2091 | IC50 ([3]; listed as Compound 39): < 0.05 µM | IC50 [3]: 0.01 to 0.05 µM | USP30ch3 I154A activity ([4]; inhibitor 0.001563 nM): 1.024 | USP30ch3 I154A activity ([4]; inhibitor 0.00625 nM): 1.056 | USP30ch3 I154A activity ([4]; inhibitor 0.025 nM): 0.9999 | USP30ch3 I154A activity ([4]; inhibitor 0.1 nM): 1.007 | USP30ch3 I154A activity ([4]; inhibitor 0.39 nM): 0.9637 | USP30ch3 I154A activity ([4]; inhibitor 1.56 nM): 0.9166 | USP30ch3 I154A activity ([4]; inhibitor 6.25 nM): 0.8225 | USP30ch3 I154A activity ([4]; inhibitor 25 nM): 0.6606 | USP30ch3 I154A activity ([4]; inhibitor 100 nM): 0.4173 | USP30ch3 I154A activity ([4]; inhibitor 400 nM): 0.274 | USP30ch3 I154A activity ([4]; inhibitor 1600 nM): 0.2192 | off-rate [5]: exceptionally slow off-rate | inhibition of other DUBs in a panel of recombinant enzymes [6]: no other DUB being inhibited | polyubiquitination of TOM20 and TOM40 [1]: elevated | polyubiquitination of mitofusin 2 (MFN2) [1]: not affecting | USP30ch2 activity ([7]; inhibitor 0.0015625 nM): 0.9681 | USP30ch2 activity ([7]; inhibitor 0.00625 nM): 1.022 | USP30ch2 activity ([7]; inhibitor 0.025 nM): 0.8647 | USP30ch2 activity ([7]; inhibitor 0.1 nM): 0.7206 | USP30ch2 activity ([7]; inhibitor 0.39 nM): 0.5237 | USP30ch2 activity ([7]; inhibitor 1.56 nM): 0.3579 | USP30ch2 activity ([7]; inhibitor 6.25 nM): 0.1977 | USP30ch2 activity ([7]; inhibitor 25 nM): 0.0871 | USP30ch2 activity ([7]; inhibitor 100 nM): 0.04077 | USP30ch2 activity ([7]; inhibitor 400 nM): 0.01798 | USP30ch2 activity ([7]; inhibitor 1600 nM): 0.005204
